Results reported in the Deep4Chem optical property database.
Each block holds one molecule with its values, some of them ahead of it.

Test: solvent given as SMILES

emission maximum (in CC#N): 503 nm
Structure (SMILES): CCCC(=O)c1c(OCOC)c(OCOC)c(C(=O)CCC)c2c1OCO2

Structure (SMILES): OCC1O[C@@H](Cc2cc(O)cc(/C=C/c3ccc(O)c(O)c3)c2)[C@H](O)[C@@H](O)[C@@H]1O (some centres not stated)
emission maximum (in C1CCOC1): 375 nm | emission maximum (in C1COCCO1): 370 nm | emission maximum (in CC#N): 387 nm | emission maximum (in CC(C)=O): 376 nm | emission maximum (in CCCCO): 385 nm | emission maximum (in CCCO): 386 nm | emission maximum (in CCO): 390 nm | emission maximum (in CCOC(C)=O): 372 nm | emission maximum (in CCOCC): 372 nm | emission maximum (in CN(C)C=O): 378 nm | emission maximum (in CO): 394 nm | emission maximum (in CS(C)=O): 381 nm | emission maximum (in Cc1ccccc1): 371 nm | emission maximum (in ClC(Cl)Cl): 373 nm | emission maximum (in O): 403 nm

emission maximum (in O): 520 nm
Structure (SMILES): O=C([O-])c1cc(N2C(=O)C=CC2=O)ccc1-c1c2cc(F)c(=O)cc-2oc2cc([O-])c(F)cc12

emission maximum (in ClC(Cl)Cl): 541 nm
Structure (SMILES): CCCCCCCCCCCCOc1ccc(C2=C3C(=O)N(CC(OCC)OCC)C(c4ccc(OCCCCCCCCCCCC)c(OCCCCCCCCCCCC)c4)=C3C(=O)N2CC(OCC)OCC)cc1OCCCCCCCCCCCC

Structure (SMILES): CCNc1ccc2c(C(F)(F)F)cc(=O)oc2c1
emission maximum (in C1CCC2CCCCC2C1): 420 nm | emission maximum (in C1CCCCC1): 417 nm | emission maximum (in CC1CCCCC1): 417 nm | emission maximum (in CC#N): 485 nm | emission maximum (in CC(C)=O): 485 nm | emission maximum (in CC(C)O): 490 nm | emission maximum (in CCC(C)CC): 415 nm | emission maximum (in CCCC(C)C): 415 nm | emission maximum (in CCCCCC): 417 nm | emission maximum (in CCCCCCO): 490 nm | emission maximum (in CCCCO): 493 nm | emission maximum (in CCO): 500 nm | emission maximum (in CCOC(C)=O): 478 nm | emission maximum (in CO): 500 nm

emission maximum (in ClCCl): 496 nm
Structure (SMILES): CCN(CC)c1ccc2cc(-c3nc4cc(C(=O)Nc5ccc(C)cc5[N+](=O)[O-])ccc4o3)c(=O)oc2c1

emission maximum (in ClCCl): 450 nm
Structure (SMILES): N#Cc1ccc(/C=C/c2ncc(-c3ccccc3)o2)cc1

Structure (SMILES): O=P1(c2ccccc2)C(c2ccc(N(c3ccccc3)c3ccccc3)cc2)=Cc2cc3ccccc3cc21 (configuration not stated)
emission maximum (in C1CCOC1): 511 nm | emission maximum (in CC#N): 561 nm | emission maximum (in CN(C)C=O): 551 nm | emission maximum (in Cc1ccccc1): 478 nm | emission maximum (in ClC(Cl)Cl): 516 nm | emission maximum (in ClCCl): 533 nm

emission maximum (in CC#N): 473 nm | emission maximum (in CO): 490 nm | emission maximum (in ClCCl): 467 nm
Structure (SMILES): COc1cc(C=O)cc(-c2[nH]c(=O)n3c2-c2ccccc2C3=O)c1O

emission maximum (in ClCCl): 441 nm
Structure (SMILES): C(=C/c1ccc(N(c2ccccc2)c2ccccc2)cc1)/c1ccc(N(c2ccccc2)c2ccccc2)cc1

emission maximum (in CCO): 438 nm | emission maximum (in ClCCl): 531 nm
Structure (SMILES): O=Cc1cnc(-c2c3ccccc3cc3ccccc23)nc1

emission maximum (in CO): 496 nm
Structure (SMILES): O=C(O)c1ccc(-c2cnc(-c3ccc(N(c4ccccc4)c4ccccc4)cc3)s2)cc1

Structure (SMILES): c1ccc2c(-c3ccc(-c4nnc(-c5ccc(-c6nnc(-c7ccc(-c8cccc9ccccc89)s7)o6)cc5)o4)s3)cccc2c1
emission maximum (in C1COCCO1): 434 nm | emission maximum (in CC#N): 458 nm | emission maximum (in CC(=O)N(C)C): 462 nm | emission maximum (in CCCCCCCCCCO): 440 nm | emission maximum (in CCCCCCCCO): 442 nm | emission maximum (in CCCCCCO): 445 nm | emission maximum (in CCCCO): 451 nm | emission maximum (in CCO): 459 nm | emission maximum (in CS(C)=O): 468 nm | emission maximum (in Cc1ccccc1): 434 nm | emission maximum (in ClC(Cl)Cl): 410 nm

emission maximum (in C1CCOC1): 503 nm
Structure (SMILES): O=C(c1ccc(C(=C(c2ccc(C(=O)c3ccc(-n4c5ccccc5c5ccccc54)cc3)cc2)c2ccc(C(=O)c3ccc(-n4c5ccccc5c5ccccc54)cc3)cc2)c2ccccc2)cc1)c1ccc(-n2c3ccccc3c3ccccc32)cc1

emission maximum (in ClC(Cl)Cl): 383 nm
Structure (SMILES): Cc1c2c(nc3ccccc13)-c1cc3c(cc1CC2)-c1nc2ccccc2c(C)c1CC3

emission maximum (in C1CCCCC1): 431 nm | emission maximum (in CC#N): 445 nm | emission maximum (in CO): 441 nm | emission maximum (in ClCCl): 443 nm
Structure (SMILES): COc1ccc2c(c1)c1c(OC)c3ccccc3c(OC)c1n2C

emission maximum (in O): 439 nm
Structure (SMILES): O=C(O)CCCCCn1c2ccc(Br)cc2c(=O)c2cc(Br)ccc21

emission maximum (in CCO): 459 nm
Structure (SMILES): Cc1c(C)n2c(COC(=O)CNC(=O)OC(C)(C)C)c(C)c(=O)n2c1=O

emission maximum (in CCO): 665 nm | emission maximum (in CO): 661 nm | emission maximum (in CS(C)=O): 665 nm | emission maximum (in O): 659 nm
Structure (SMILES): CN1/C(=C/C=C(/C=C/c2sc3ccccc3[n+]2C)c2cccc(C(F)(F)F)c2)Sc2ccccc21

Structure (SMILES): c1ccc(-c2c3c(c(-c4ccccc4)c4cc5ccccc5cc24)Cc2c(c(-c4ccccc4)c4cc5ccccc5cc4c2-c2ccccc2)C3)cc1
emission maximum (in CC#N): 400 nm | emission maximum (in CCCCCC): 396 nm | emission maximum (in CO): 398 nm | emission maximum (in Cc1ccccc1): 402 nm | emission maximum (in ClCCl): 402 nm

emission maximum (in C1CCCCC1): 368 nm | emission maximum (in C1CCOC1): 419 nm | emission maximum (in C1COCCO1): 399 nm | emission maximum (in CC1CCCCC1): 391 nm | emission maximum (in CC#N): 421 nm | emission maximum (in CC(C)O): 408 nm | emission maximum (in CCO): 414 nm | emission maximum (in CO): 423 nm | emission maximum (in ClC(Cl)Cl): 404 nm | emission maximum (in O): 445 nm
Structure (SMILES): CNc1ccc(/C=C/C#N)cc1

Structure (SMILES): COc1cc(OC)c2c(c1)c1c(c3ccc(C(C)(C)C)cc32)=[N+]2C(=Nc3c(-c4cc(OC)c(OC)c(OC)c4)c4c5cc(OC)cc(OC)c5c5cc(C(C)(C)C)ccc5c4n3[B-]2(F)F)C=1c1cc(OC)c(OC)c(OC)c1
emission maximum (in Cc1ccccc1): 809 nm

emission maximum (in CCO): 465 nm | emission maximum (in ClC(Cl)Cl): 456 nm
Structure (SMILES): CCOc1ccc2c(-c3nc(-c4cccc(C)c4)no3)cc(=O)oc2c1

Structure (SMILES): COCCC1=Cc2nc1ccc1[nH]c(cc1CCOC)c1nc(c(O)cc3[nH]c2cc3CCOC)C(CCOC)=C1
emission maximum (in Cc1ccccc1): 688 nm

Structure (SMILES): CCn1c2ccccc2c2cc(-c3cc(-c4ccc5c(c4)c4ccccc4n5CC)nc(SC)n3)ccc21
emission maximum (in C1CCOC1): 394 nm | emission maximum (in CCOC(C)=O): 392 nm | emission maximum (in CN(C)C=O): 421 nm | emission maximum (in Cc1ccccc1): 387 nm | emission maximum (in ClCCl): 411 nm

emission maximum (in CO): 651 nm
Structure (SMILES): C(/C=C/C1=[NH+]c2cccc3cccc1c23)=c1/[nH]c2cccc3cccc1c32

emission maximum (in C1CCOC1): 552 nm
Structure (SMILES): N#C/C(=C\c1ccc(C=C(c2ccccc2)c2ccccc2)cc1)c1ccc([N+](=O)[O-])cc1

emission maximum (in CCCCCC): 495 nm
Structure (SMILES): CCc1ccc2ccc(-c3ccccc3)nn12

emission maximum (in CC1CCCO1): 552 nm
Structure (SMILES): O=c1cc2c(-c3c(O)c4cccc5ccc6oc(=O)cc3c6c54)c(O)c3cccc4ccc(o1)c2c43

emission maximum (in ClC(Cl)Cl): 457 nm
Structure (SMILES): COc1ccc(C2=Cc3ccc4ccccc4[n+]3[B-](F)(F)O2)cc1

emission maximum (in ClCCl): 517 nm
Structure (SMILES): CCCCCCN1C(=O)c2cccc3c(-c4ccc(-c5cc(-c6ccc(Cl)cc6)n(-c6ccccc6)n5)s4)ccc(c23)C1=O

emission maximum (in CC#N): 482 nm | emission maximum (in ClCCl): 474 nm
Structure (SMILES): COC(=O)c1cc(=O)n(C)c2cc(-c3ccc4c(c3)OCO4)sc12

emission maximum (in ClCCl): 641 nm
Structure (SMILES): CCCCCCn1c(=O)c2c3[nH]c4ccccc4[nH]c3c3c(=O)n(CCCCCC)c(=O)c3c2c1=O

emission maximum (in ClC(Cl)Cl): 449 nm
Structure (SMILES): F[B-]1(F)OC(c2ccc(Br)cc2)=Cc2c3ccccc3c3ccccc3[n+]21

Structure (SMILES): CCCCCCC(CCCCCC)N1C(=O)c2cccc3c(-c4ccc(-c5ccc(OC)cc5)cc4)ccc(c23)C1=O
emission maximum (in CCCCCC): 426.8 nm | emission maximum (in CCCCCCCCCCCCCC): 436.7 nm | emission maximum (in CCCCCCCCCCCO): 518.2 nm | emission maximum (in CCCCO): 556.6 nm | emission maximum (in CN(C)C=O): 583.4 nm | emission maximum (in Cc1ccccc1): 454.6 nm | emission maximum (in ClC(Cl)Cl): 492.2 nm

Structure (SMILES): COC(=O)C1=C(C(=O)OC)C2=C[C@H]3c4ccccc4[C@]2(S1)c1ccccc13
emission maximum (in C1CCOC1): 477 nm | emission maximum (in CC#N): 489 nm | emission maximum (in CCCCCC): 465 nm | emission maximum (in CCOCC): 473 nm | emission maximum (in CO): 500 nm | emission maximum (in ClCCl): 488 nm | emission maximum (in c1ccccc1): 477 nm

Structure (SMILES): CC(C)[Si](C#Cc1c2ccccc2c(C#Cc2c3ccccc3c(C#Cc3c4ccccc4c(C#Cc4c5ccccc5c(C#C[Si](C(C)C)(C(C)C)C(C)C)c5ccccc45)c4ccccc34)c3ccccc23)c2ccccc12)(C(C)C)C(C)C
emission maximum (in Cc1ccccc1): 609 nm

Structure (SMILES): c1csc(-c2cnc(-c3cccs3)c3nonc23)c1
emission maximum (in C1CCCCC1): 567 nm | emission maximum (in CC(C)=O): 612 nm | emission maximum (in CCCCCC): 564 nm | emission maximum (in CCCO): 611 nm | emission maximum (in CCO): 614 nm | emission maximum (in CCOCC): 587 nm | emission maximum (in CO): 616 nm | emission maximum (in Cc1ccccc1): 600 nm | emission maximum (in ClC(Cl)(Cl)Cl): 580 nm | emission maximum (in ClC(Cl)Cl): 611 nm | emission maximum (in O=[N+]([O-])c1ccccc1): 614 nm | emission maximum (in OCC(O)CO): 633 nm | emission maximum (in OCc1ccccc1): 628 nm | emission maximum (in c1ccc2ncccc2c1): 625 nm | emission maximum (in c1ccccc1): 601 nm | emission maximum (in c1ccncc1): 617 nm

emission maximum (in CC#N): 583 nm | emission maximum (in ClCCl): 574 nm
Structure (SMILES): CCN(CC)c1ccc(/N=N/c2nc3ccc(OC)cc3s2)cc1

emission maximum (in CS(C)=O): 586 nm
Structure (SMILES): CCCCN1/C(=C/C=C/C2=[N+](C)c3ccccc3C2(C)C)C(C)(C)c2c1ccc1ccccc21

emission maximum (in ClCCl): 446 nm
Structure (SMILES): CC1(C)c2ccccc2-c2cc3c(cc21)c1ccccc1n3-c1ccc2ncccc2c1

Structure (SMILES): COc1ccc(-c2c3ccc([nH]3)c3nc(c(-c4ccc([N+](=O)[O-])cc4)c4ccc([nH]4)c4ccc([nH]4)c(-c4ccc(OC)cc4)c4ccc2o4)C=C3)cc1
emission maximum (in C1CCOC1): 761 nm | emission maximum (in Cc1ccccc1): 739 nm | emission maximum (in c1ccccc1): 739 nm

emission maximum (in CC#N): 629 nm
Structure (SMILES): CC(=O)OC[C@H]1O[C@@H](OCC#Cc2ccc(C3=C4C(C)=CC(/C=C/c5ccc([N+](C)(C)C)cc5)=[N+]4[B-](F)(F)n4c(/C=C/c5ccc([N+](C)(C)C)cc5)cc(C)c43)cc2)[C@H](OC(C)=O)C(OC(C)=O)[C@@H]1OC(C)=O (some centres not stated)

emission maximum (in ClC(Cl)Cl): 374 nm
Structure (SMILES): N#Cc1c(C#N)c2cc(F)ccc2c2ccc(F)cc12

emission maximum (in CC#N): 549 nm
Structure (SMILES): CC1=C(c2ccccc2)C2=Cc3c(-c4ccccc4)c(C)c(C)n3[B-](F)(F)[N+]2=C1C

emission maximum (in C1CCOC1): 490 nm
Structure (SMILES): [O-]c1ccccc1/C=N/c1ccccc1/N=C/c1ccccc1[O-]

emission maximum (in CCO): 426.44 nm
Structure (SMILES): c1ccc2cc3cnccc3cc2c1
